Where “and” joins values, the source holds several entries; their conditions need not be identical. Equal entries are not always repeated.
System: CA1 region of hippocampal organotypic cultures
Test: Kainic acid-induced neuronal cell death (experimental status epilepticus), propidium iodide uptake in hippocampal organotypic cultures
Format: cell-based, rat
Protocol: A seizure-induced neuronal cell death in vitro experimental model of status epilepticus was provided as follows. The neuroprotective potential of (R)-3-hydroxybutyrate sodium salt (BHB) (0.3 mM, 1 mM and 3 mM) was assessed by propidium iodide uptake into hippocampal organotypic cultures administered 1 μM KA for 24 h to induce experimental status epilepticus. Neuronal cell death is already observed at 24 h subsequent to KA-application therefore, it was of no value to administer to the cultures at this time-point. Test compound was, therefore, added to the cultures before significant neuronal cell death occurred.
Hippocampal organotypic slice cultures were prepared according to the Gähwiler roller-tube method (Gähwiler B H (1981) and Gähwiler et al (1997)) from nine rat pups aged between […].
Rat pups were killed by cervical dislocation, their brains rapidly removed and placed in a Petri dish. The meninges were removed from the caudal section of the cortex and then the brain was located with the ventral surface uppermost. Two transverse cuts were made, the first, at the level of the cerebellum to remove the brainstem, and the second, at the level of the optic chiasm to remove the forebrain. The cerebellum, midbrain and hindbrain were lifted upwards from the surrounding cortical tissue leaving one hippocampus embedded within each cortical hemisphere. An incision was made down the midline to separate the two cortical hemispheres. To separate the hippocampus from the surrounding cortical tissue three incisions were made around the hippocampus and then it was rolled out from the underlying tissue. The isolated hippocampus was then placed in a drop of ice-cold Gey's balanced salt solution containing 0.5% D-glucose (GBSS+G). The procedure was then repeated to isolate the remaining hippocampus. The whole procedure was performed using a Swift dissecting microscope and took between 10-15 mins thereby minimizing tissue deterioration.
The hippocampi were transferred to a Mcllwain tissue chopper and sectioned into a series of 400 μm thick slices. After sectioning, the hippocampi were placed in ice-cold GBSS+G and the slices gently teased apart. The slices were washed once in GBSS+G and the integrity of the slices checked under a higher magnification. If the slices had any tears, an opaque appearance or the cell body layers were not easily visible, they were discarded. A healthy slice has a yellow-brown colouration without any blackening in the cell body regions.
To adhere the hippocampal slice to a coverslip (Agar Scientific, UK), 20 μl of chicken plasma was placed in the middle of the coverslip followed by a hippocampal slice. The plasma was spread thinly over the surface of the coverslip, to ensure the slice was well coated. Then, 30 μl of thrombin (75 units/ml activity) was placed over the slice and mixed thoroughly with the chicken plasma. The plasma-thrombin mixture was left for approximately 60 s until a clot of jelly-like consistency had formed. The coverslip was then placed in a test-tube (Nunclon, UK) which contained 750 μl of pre-warmed culture media (37° C.). Culture media consisted of 50% basal media Earles, 25% Hank's balanced salt solution, 25% heat inactivated horse serum, […] L-glutamine and 0.5% D-glucose. The test tubes were sealed with a screw top lid and placed in a custom made roller-drum (Medical School Workshop, University of Nottingham) at an angle of 5°, rotating at 10 revolutions per hour in a dry incubator at 37° C.
After 48 h in vitro, 500 μl of media was removed and the cultures were incubated in culture media containing a combination of anti-mitotics, which consisted of 5-fluorodeoxyuridine, cytosine-β-D-arabino-furanoside (ARA-C) and uridine each at a concentration of 1 μM. After a further 24 h, 500 μl of media was removed and replaced with 500 μl of new culture media containing no anti-mitotics. […]

SMILES	percentage propidium iodide uptake (mean) (KTX0101 0.3 mM added 30 mins after KA 1 μM, assessed at 24 h, n=12)	percentage propidium iodide uptake (mean) (KTX0101 0.3 mM for 7 d following KA 1 μM for 24 h, assessed at 7 d, n=12)	percentage propidium iodide uptake (mean) (KTX0101 0.3 mM for 7 d following KA 1 μM for 24 h, assessed at 7 d, n=12, listed as BHB)	percentage propidium iodide uptake (mean) (KTX0101 1.0 mM added 30 mins after KA 1 μM, assessed at 24 h, n=13)	percentage propidium iodide uptake (mean) (KTX0101 1.0 mM for 7 d following KA 1 μM for 24 h, assessed at 7 d, n=13)	percentage propidium iodide uptake (mean) (KTX0101 1.0 mM for 7 d following KA 1 μM for 24 h, assessed at 7 d, n=13, listed as BHB)	percentage propidium iodide uptake (mean) (KTX0101 3.0 mM added 30 mins after KA 1 μM, assessed at 24 h, n=13)	percentage propidium iodide uptake (mean) (KTX0101 3.0 mM for 7 d following KA 1 μM for 24 h, assessed at 7 d, n=13)	percentage propidium iodide uptake (mean) (KTX0101 3.0 mM for 7 d following KA 1 μM for 24 h, assessed at 7 d, n=13, listed as BHB)	percentage propidium iodide uptake (mean) (KA 1 μM alone for 24 h, then washout, assessed at 7 d, n=12, control cultures 1.81)	percentage propidium iodide uptake (mean) (KA 1 μM alone for 24 h, assessed at 24 h, n=12, control cultures 1.68)
C[C@@H](O)CC(=O)[O-].[Na+] [KTX0101, sodium salt of (R)-3-hydroxybutyrate]	6.48%	1.54%	1.54±0.33% and 1.54%	4.89%	1.05%	1.05±0.29% and 1.05%	4.72%	1.25%	1.25±0.21% and 1.25%	–	–
C=C(C)[C@H]1CN[C@H](C(=O)O)[C@H]1CC(=O)O [KA, kainic acid, reference compound]	–	–	–	–	–	–	–	–	–	6.97±2.03% and 6.97%	8.89±1.78% and 8.89%

Reference: US20190247340A1, “EPILEPSY TREATMENT EMPLOYING KETOGENIC COMPOUNDS WHICH ARREST APOPTOSIS” (priority 2004, published 2019)
